Experimental findings from US20160158317A1, “Antimicrobial Peptide Variants and Polynucleotides Encoding Same” (Adenium Biotech A/S, priority 2010, published 2016) are described below.

Where a SMILES comes first, the peptide text is derived from it. Bridges are numbered along the chain shown (N, C = ends).

A short description of this data set: Determination of the protein binding (90% serum, 30 kDa filter, HPLC). It is filed as in vitro ADME. Particulars: serum. The protocol: Protein binding assays were performed as follows. The purified peptides were mixed with 90% serum and centrifuged through a 30 kDa filter. The ultra-filtrate and the non filtrated serum samples were quantified by HPLC measurements and the protein binding was subsequently calculated.
Compound `CC(C)[C@@H]1NC(=O)CNC(=O)[C@H](CC(N)=O)NC(=O)[C@H](CCCNC(=N)N)NC(=O)[C@H](Cc2ccc(O)cc2)NC(=O)[C@H](C(C)C)NC(=O)[C@@H]2CSSC[C@H](NC(=O)[C@H](CO)NC(=O)[C@H](CCCNC(=N)N)NC1=O)C(=O)N[C@@H](Cc1ccc(O)cc1)C(=O)N[C@@H](CCCNC(=N)N)C(=O)N[C@@H](CCCNC(=N)N)C(=O)N[C@H](C(=O)N[C@@H](CC(N)=O)C(=O)O)CSSC[C@H](NC(=O)[C@H](Cc1ccccc1)NC(=O)CN)C(=O)N[C@@H](Cc1c[nH]c3ccccc13)C(=O)N[C@@H](CCCNC(=N)N)C(=O)N[C@@H](C)C(=O)N2` [compound 320] (H-GFCWRACVYRNGVRSCYRRCN-OH; disulfide 3-20, 7-16) gave a free fraction (fraction unbound) of 0.12.

As for `CC(C)[C@@H]1NC(=O)CNC(=O)[C@H](CC(N)=O)NC(=O)[C@H](CCCCN)NC(=O)[C@H](Cc2ccc(O)cc2)NC(=O)[C@H](C(C)C)NC(=O)[C@@H]2CSSC[C@H](NC(=O)[C@H](C(C)C)NC(=O)[C@H](CCCNC(=N)N)NC1=O)C(=O)N[C@@H](Cc1c[nH]cn1)C(=O)N[C@@H](CCCNC(=N)N)C(=O)N[C@@H](CCCNC(=N)N)C(=O)N[C@H](C(=O)N[C@@H](CC(N)=O)C(=O)O)CSSC[C@H](NC(=O)[C@H](Cc1ccccc1)NC(=O)CN)C(=O)N[C@@H](Cc1c[nH]c3ccccc13)C(=O)N[C@@H](Cc1ccc(O)cc1)C(=O)N[C@@H](C(C)C)C(=O)N2` [compound 89] (H-GFCWYVCVYKNGVRVCHRRCN-OH; disulfide 3-20, 7-16 (inferred); N-terminus and C-terminus assumed), the fraction unbound is 0.1. Then `CC(C)[C@@H]1NC(=O)CNC(=O)[C@H](CC(N)=O)NC(=O)[C@H](CCCNC(=N)N)NC(=O)[C@H](Cc2ccc(O)cc2)NC(=O)[C@H](C(C)C)NC(=O)[C@@H]2CSSC[C@H](NC(=O)[C@H](C(C)C)NC(=O)[C@H](CCCNC(=N)N)NC1=O)C(=O)N[C@@H](Cc1ccc(O)cc1)C(=O)N[C@@H](CCCNC(=N)N)C(=O)N[C@@H](CCCNC(=N)N)C(=O)N[C@H](C(=O)N[C@@H](CO)C(=O)O)CSSC[C@H](NC(=O)[C@H](Cc1ccccc1)NC(=O)CN)C(=O)NCC(=O)N[C@@H](Cc1c[nH]cn1)C(=O)N[C@@H](C(C)C)C(=O)N2` [compound 144] (H-GFCGHVCVYRNGVRVCYRRCS-OH; disulfide 3-20, 7-16 (inferred); N-terminus and C-terminus assumed), with 0.32; and `CC(C)[C@@H]1NC(=O)CNC(=O)[C@H](CC(N)=O)NC(=O)[C@H](CCCNC(=N)N)NC(=O)[C@H](Cc2ccc(O)cc2)NC(=O)[C@H](C(C)C)NC(=O)[C@@H]2CSSC[C@H](NC(=O)[C@H](CO)NC(=O)[C@H](CCCNC(=N)N)NC1=O)C(=O)N[C@@H](Cc1ccc(O)cc1)C(=O)N[C@@H](CCCNC(=N)N)C(=O)N[C@@H](CCCNC(=N)N)C(=O)N[C@H](C(=O)N[C@@H](CC(N)=O)C(=O)O)CSSC[C@H](NC(=O)[C@H](Cc1ccccc1)NC(=O)CN)C(=O)N[C@@H](C)C(=O)N[C@@H](CCCCN)C(=O)N[C@@H](C(C)C)C(=O)N2` [compound 120] (H-GFCAKVCVYRNGVRSCYRRCN-OH; disulfide 3-20, 7-16 (inferred); N-terminus and C-terminus assumed), with 0.31.

In turn, `CC(C)[C@@H]1NC(=O)CNC(=O)[C@H](CC(N)=O)NC(=O)[C@H](CCCNC(=N)N)NC(=O)[C@H](Cc2ccc(O)cc2)NC(=O)[C@H](Cc2c[nH]cn2)NC(=O)[C@@H]2CSSC[C@H](NC(=O)[C@H](C(C)C)NC(=O)[C@H](CCCNC(=N)N)NC1=O)C(=O)N[C@@H](Cc1ccc(O)cc1)C(=O)N[C@@H](CCCNC(=N)N)C(=O)N[C@@H](CCCNC(=N)N)C(=O)N[C@H](C(=O)N[C@@H](CC(N)=O)C(=O)O)CSSC[C@H](NC(=O)[C@H](Cc1ccccc1)NC(=O)CN)C(=O)N[C@@H](Cc1c[nH]c3ccccc13)C(=O)N[C@@H](CCCNC(=N)N)C(=O)N[C@@H](C(C)C)C(=O)N2` [compound 74] (H-GFCWRVCHYRNGVRVCYRRCN-OH; disulfide 3-20, 7-16 (inferred); N-terminus and C-terminus assumed) showed a free fraction (fraction unbound) of 0.01. `CC(C)[C@@H]1NC(=O)CNC(=O)[C@H](CC(N)=O)NC(=O)[C@H](CCCNC(=N)N)NC(=O)[C@H](Cc2ccc(O)cc2)NC(=O)[C@H](C(C)C)NC(=O)[C@@H]2CSSC[C@H](NC(=O)[C@H](C(C)C)NC(=O)[C@H](CCCNC(=N)N)NC1=O)C(=O)N[C@@H](Cc1ccc(O)cc1)C(=O)N[C@@H](CCCNC(=N)N)C(=O)N[C@@H](CCCNC(=N)N)C(=O)N[C@H](C(=O)N[C@@H](CC(N)=O)C(=O)O)CSSC[C@H](NC(=O)[C@H](Cc1ccccc1)NC(=O)CN)C(=O)N[C@@H](Cc1c[nH]c3ccccc13)C(=O)N[C@@H](Cc1ccc(O)cc1)C(=O)NCC(=O)N2` [compound 15] (H-GFCWYGCVYRNGVRVCYRRCN-OH; disulfide 3-20, 7-16 (inferred); N-terminus and C-terminus assumed) showed a fraction unbound of 0.04. As for `CC(C)[C@@H]1NC(=O)[C@H](CCCNC(=N)N)NC(=O)[C@H](C)NC(=O)CNC(=O)[C@H](CC(N)=O)NC(=O)[C@H](CCCNC(=N)N)NC(=O)[C@H](Cc2ccc(O)cc2)NC(=O)[C@H](C(C)C)NC(=O)[C@@H]2CSSC[C@H](NC1=O)C(=O)N[C@@H](Cc1c[nH]cn1)C(=O)N[C@@H](CCCNC(=N)N)C(=O)N[C@@H](CCCNC(=N)N)C(=O)N[C@H](C(=O)N[C@@H](CC(N)=O)C(=O)O)CSSC[C@H](NC(=O)[C@H](Cc1ccccc1)NC(=O)CN)C(=O)N[C@@H](Cc1c[nH]c3ccccc13)C(=O)N[C@@H](CC(N)=O)C(=O)N[C@@H](C(C)C)C(=O)N2` [compound 235] (H-GFCWNVCVYRNGARVCHRRCN-OH; disulfide 3-20, 7-16 (inferred); N-terminus and C-terminus assumed), the figure is 0.36. For the compound `CC(C)[C@@H]1NC(=O)CNC(=O)[C@H](CC(N)=O)NC(=O)[C@H](CCCNC(=N)N)NC(=O)[C@H](Cc2ccc(O)cc2)NC(=O)[C@H](C(C)C)NC(=O)[C@@H]2CSSC[C@H](NC(=O)[C@H](C(C)C)NC(=O)[C@H](CCCNC(=N)N)NC1=O)C(=O)N[C@@H](Cc1ccc(O)cc1)C(=O)N[C@@H](CCCNC(=N)N)C(=O)N[C@@H](CCCNC(=N)N)C(=O)N[C@H](C(=O)N[C@@H](CC(N)=O)C(=O)O)CSSC[C@H](NC(=O)[C@H](Cc1ccccc1)NC(=O)CN)C(=O)N[C@@H](Cc1c[nH]c3ccccc13)C(=O)N[C@@H](CCCNC(=N)N)C(=O)N[C@@H](C)C(=O)N2` [compound 72] (H-GFCWRACVYRNGVRVCYRRCN-OH; disulfide 3-20, 7-16 (inferred); N-terminus and C-terminus assumed), the free fraction (fraction unbound) is 0.03. Then `CC(C)[C@@H]1NC(=O)[C@H](CCCNC(=N)N)NC(=O)[C@H](C)NC(=O)CNC(=O)[C@H](CC(N)=O)NC(=O)[C@H](CCCNC(=N)N)NC(=O)[C@H](CCCCN)NC(=O)[C@H](C(C)C)NC(=O)[C@@H]2CSSC[C@H](NC1=O)C(=O)N[C@@H](Cc1ccc(O)cc1)C(=O)N[C@@H](CCCNC(=N)N)C(=O)N[C@@H](CCCNC(=N)N)C(=O)N[C@H](C(=O)N[C@@H](CC(N)=O)C(=O)O)CSSC[C@H](NC(=O)[C@H](Cc1ccccc1)NC(=O)CN)C(=O)N[C@@H](C)C(=O)N[C@@H](Cc1c[nH]cn1)C(=O)N[C@@H](C(C)C)C(=O)N2` [compound 362] (H-GFCAHVCVKRNGARVCYRRCN-OH; disulfide 3-20, 7-16 (inferred); N-terminus and C-terminus assumed), with 0.24.
